The source of these data is ChEMBL document CHEMBL1130912, “SAR of novel biarylmethylamine dopamine D4 receptor ligands” (Bioorg Med Chem Lett, 1998).

Values joined by “and” are separate entries in the source; they are usually repeats but may differ in a detail not shown here. Equal values may be shown once.

Assay [1] concerns the target T1, D(3) dopamine receptor (Homo sapiens, UniProt P35462). The experiment in a line: biochemical.
Description: Binding affinity to cloned human Dopamine receptor D3 expressed in CHO cells by [3H]spiperone displacement.
Assay [2] concerns the target T2, D(2) dopamine receptor (Homo sapiens, UniProt P14416). Kind of assay: biochemical.
Description: Binding affinity to cloned human Dopamine receptor D2 expressed in A9L cells by [3H]spiperone displacement.
The next assay addresses T3, D(4) dopamine receptor (Homo sapiens, UniProt P21917).
T3 sequence (P21917 whole entry): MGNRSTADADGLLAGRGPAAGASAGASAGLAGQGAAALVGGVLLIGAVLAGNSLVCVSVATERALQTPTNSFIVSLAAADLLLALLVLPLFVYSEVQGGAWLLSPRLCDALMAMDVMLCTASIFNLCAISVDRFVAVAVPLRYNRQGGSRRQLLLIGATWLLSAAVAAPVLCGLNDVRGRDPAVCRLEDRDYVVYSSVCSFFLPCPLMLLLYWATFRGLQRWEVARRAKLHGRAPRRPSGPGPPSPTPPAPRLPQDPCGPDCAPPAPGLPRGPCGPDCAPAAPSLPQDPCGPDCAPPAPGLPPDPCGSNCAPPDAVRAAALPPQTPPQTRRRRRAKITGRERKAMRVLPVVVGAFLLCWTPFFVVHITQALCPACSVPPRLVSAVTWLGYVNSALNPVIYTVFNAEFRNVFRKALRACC
Kind of assay: biochemical.

The target of assay [3] is T4, 5-hydroxytryptamine receptor 1A (Rattus norvegicus, UniProt P19327).
T4 sequence (P19327 whole entry): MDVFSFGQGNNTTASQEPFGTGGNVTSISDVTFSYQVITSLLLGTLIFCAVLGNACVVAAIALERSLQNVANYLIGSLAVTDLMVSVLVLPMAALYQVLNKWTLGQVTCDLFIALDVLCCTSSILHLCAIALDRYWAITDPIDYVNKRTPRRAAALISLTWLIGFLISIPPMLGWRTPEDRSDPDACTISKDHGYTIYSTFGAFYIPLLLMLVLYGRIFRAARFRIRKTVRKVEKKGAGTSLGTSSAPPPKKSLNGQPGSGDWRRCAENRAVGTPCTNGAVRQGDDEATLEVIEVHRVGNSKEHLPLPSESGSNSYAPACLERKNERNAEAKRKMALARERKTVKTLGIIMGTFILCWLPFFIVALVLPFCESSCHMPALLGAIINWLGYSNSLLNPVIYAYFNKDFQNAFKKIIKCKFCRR
Kind of assay: biochemical.
Description: Binding affinity to 5-HT1A receptor in rat hippocampus by [3H]8-OH-DPAT displacement.

For assay [4], the target named is T2, D(2) dopamine receptor. The experiment in a line: Binding affinity to cloned human Dopamine receptor D2 expressed in A9L cells using [3H]spiperone at 100 nM concentration. It counts as cell-based.
Assay [5] concerns the target T1, D(3) dopamine receptor. Kind of assay: Binding affinity to cloned human Dopamine receptor D3 expressed in CHO cells using [3H]spiperone at 100 nM concentration. The format is cell-based.
The target of assay [6] is T5, D(4) dopamine receptor (Homo sapiens) (UniProt P21917).
T5 sequence (whole entry): T3 sequence (P21917 whole entry)
Kind of assay: Binding affinity to cloned human dopamine receptor D4 expressed in CHO cells using [3H]spiperone at 100 nM concentration. It counts as cell-based.

T2 sequence (P14416 whole entry): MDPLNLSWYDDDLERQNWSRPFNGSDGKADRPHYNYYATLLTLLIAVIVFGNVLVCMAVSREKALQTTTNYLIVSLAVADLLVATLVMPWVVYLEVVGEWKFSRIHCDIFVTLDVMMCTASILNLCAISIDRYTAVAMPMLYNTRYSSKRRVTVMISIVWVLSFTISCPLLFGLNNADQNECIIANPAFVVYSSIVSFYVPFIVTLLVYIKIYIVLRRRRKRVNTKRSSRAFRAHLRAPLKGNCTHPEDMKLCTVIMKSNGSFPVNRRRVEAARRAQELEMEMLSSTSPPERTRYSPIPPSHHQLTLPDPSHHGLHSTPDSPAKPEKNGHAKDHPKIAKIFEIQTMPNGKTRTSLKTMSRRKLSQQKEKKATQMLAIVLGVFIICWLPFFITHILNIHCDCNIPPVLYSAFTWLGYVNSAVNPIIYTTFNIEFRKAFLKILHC
T1 sequence (P35462 whole entry): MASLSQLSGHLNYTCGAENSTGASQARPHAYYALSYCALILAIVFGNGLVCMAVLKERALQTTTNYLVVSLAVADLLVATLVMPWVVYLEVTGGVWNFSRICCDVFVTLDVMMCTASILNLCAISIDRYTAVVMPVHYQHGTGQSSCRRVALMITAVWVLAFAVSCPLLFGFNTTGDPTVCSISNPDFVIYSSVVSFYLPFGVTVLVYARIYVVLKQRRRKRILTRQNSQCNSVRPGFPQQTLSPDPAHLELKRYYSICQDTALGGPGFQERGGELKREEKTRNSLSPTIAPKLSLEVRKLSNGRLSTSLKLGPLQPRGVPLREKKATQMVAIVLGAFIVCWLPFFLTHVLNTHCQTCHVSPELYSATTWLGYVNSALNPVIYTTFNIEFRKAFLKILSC

A word on the IC50: it is the point on the concentration scale where inhibition reaches its midpoint. Read a low IC50 as higher potency. On to `Fc1ccc(-c2cccc(CN3CCN(c4ncccn4)CC3)c2)cc1`, for which the concentration for half-maximal inhibition (IC50) is 59 nM on D(3) dopamine receptor [1]; 49 nM at D(2) dopamine receptor [2]; 2 nM and 7 nM against D(4) dopamine receptor; 700 nM in assay [3].

For `Fc1ccc(-c2cncc(CN3CCN(c4cnccn4)CC3)c2)cc1`, the half-maximal inhibitory concentration (IC50) at D(3) dopamine receptor [1] came to 480 nM; on D(2) dopamine receptor [2], 450 nM; against D(4) dopamine receptor it was 25 nM; in assay [3] it was 400 nM.

Take `c1cnc(N2CCN(Cc3cccc4c3-c3ccccc3C4)CC2)nc1`: the 50% inhibitory concentration (IC50) at D(3) dopamine receptor [1] was 4000 nM; against D(2) dopamine receptor [2], 2300 nM; at D(4) dopamine receptor, 4800 nM; in assay [3], greater than 100 nM.

For the molecule `c1cnc(N2CCN(Cc3cccc4c3Cc3ccccc3-4)CC2)nc1`, the 50% inhibitory concentration (IC50) at D(3) dopamine receptor [1] is 5600 nM; against D(2) dopamine receptor [2], 9800 nM; against D(4) dopamine receptor it was 20 nM; in assay [3], greater than 10000 nM.

In the case of `COc1ccc(-c2cccc(CN3CCN(c4ncccn4)CC3)c2)cc1`, the IC50 amounted to 72 nM at D(3) dopamine receptor [1], 50 nM against D(2) dopamine receptor [2], 57 nM at D(4) dopamine receptor and 2000 nM in assay [3].

Turning to `COc1ccccc1-c1cccc(CN2CCN(c3ncccn3)CC2)c1`, the IC50 against D(3) dopamine receptor [1] is 710 nM; on D(2) dopamine receptor [2], 360 nM; against D(4) dopamine receptor it was 16 nM; in assay [3], 300 nM.

Consider `c1cnc(N2CCN(Cc3cccc(-c4ccsc4)c3)CC2)nc1`, for which the IC50 at D(3) dopamine receptor [1] is 200 nM; against D(2) dopamine receptor [2], 300 nM; on D(4) dopamine receptor, 3 nM and 6 nM; in assay [3] it was 600 nM.

Turning to `Fc1ccccc1-c1cccc(CN2CCN(c3ncccn3)CC2)c1`, the 50% inhibitory concentration (IC50) came out at 320 nM on D(3) dopamine receptor [1], 250 nM on D(2) dopamine receptor [2], 8 nM at D(4) dopamine receptor and 900 nM in assay [3].

For the molecule `Fc1ccc(-c2cncc(CN3CCN(c4ccccc4F)CC3)c2)cc1`, the IC50 against D(3) dopamine receptor [1] was 8 nM; against D(2) dopamine receptor [2] it was 25 nM; on D(4) dopamine receptor it was 3 nM and 7 nM; in assay [3] it was 20 nM.

As for `Fc1ccc(-c2cncc(CN3CCN(c4ccccc4)CC3)c2)cc1`, the IC50 against D(3) dopamine receptor [1] stood at 33 nM; against D(2) dopamine receptor [2], 23 nM; against D(4) dopamine receptor it was 6 nM; in assay [3], 70 nM.

Consider `Fc1ccc(-c2cncc(CN3CCN(c4ccc(F)cc4)CC3)c2)cc1`, for which the concentration for half-maximal inhibition (IC50) on D(3) dopamine receptor [1] was 200 nM; against D(2) dopamine receptor [2], 70 nM; on D(4) dopamine receptor, 8 nM; in assay [3], 400 nM.

The term inhibition denotes the relative decrease from the control value, in per cent. For the molecule `c1cnc(N2CCN(Cc3ccc4c(c3)Cc3ccccc3-4)CC2)nc1`, the inhibition at D(2) dopamine receptor [4] stood at 89%; on D(3) dopamine receptor [5] it was 91%; in assay [6], 87%. Besides, the half-maximal inhibitory concentration (IC50) in assay [3] was greater than 100 nM.

With `Fc1ccc(-c2cncc(CN3CCN(c4ccccn4)CC3)c2)cc1`, the IC50 on D(3) dopamine receptor [1] is 300 nM; against D(2) dopamine receptor [2] it was 60 nM; against D(4) dopamine receptor it was 7 nM; in assay [3], 10 nM.

`Fc1cccc(-c2cccc(CN3CCN(c4ncccn4)CC3)c2)c1`: the 50% inhibitory concentration (IC50) against D(3) dopamine receptor [1] is 200 nM; against D(2) dopamine receptor [2] it was 81 nM; against D(4) dopamine receptor, 4 nM and 9 nM; in assay [3] it was 300 nM.

For the molecule `COc1cccc(-c2cccc(CN3CCN(c4ncccn4)CC3)c2)c1`, the half-maximal inhibitory concentration (IC50) at D(3) dopamine receptor [1] came out at 1100 nM; against D(2) dopamine receptor [2], 490 nM; against D(4) dopamine receptor, 17 nM; in assay [3] it was 700 nM.

As to `c1cnc(N2CCN(Cc3cccc4c3sc3ccccc34)CC2)nc1`, the results for the inhibition (on D(2) dopamine receptor [4]; at D(3) dopamine receptor [5]; in assay [6]) were 97%, 101% and 87%, respectively. This molecule yielded an IC50 in assay [3] greater than 100 nM.

For the molecule `c1cnc(N2CCN(CC3c4ccccc4-c4ccccc43)CC2)nc1`, the results for the inhibition (at D(2) dopamine receptor [4]; at D(3) dopamine receptor [5]; in assay [6]) were 100%, 95% and 99%, respectively. For the same molecule, in assay [3], the half-inhibitory concentration (IC50) was greater than 100 nM.

With `CC(C)Oc1cccnc1N(C)C1CCN(Cc2ccccc2)CC1`, the IC50 at D(3) dopamine receptor [1] is 5500 nM; on D(2) dopamine receptor [2], 620 nM; against D(4) dopamine receptor, 5 nM and 8 nM; in assay [3], greater than 1000 nM.

On to `Fc1ccc(-c2cncc(CN3CCN(c4ncccn4)CC3)c2)cc1`, for which the IC50 against D(3) dopamine receptor [1] was 150 nM; at D(2) dopamine receptor [2], 120 nM; on D(4) dopamine receptor, 9 nM and 7 nM; in assay [3] it was 100 nM.

With `c1cnc(N2CCN(Cc3cccc4c3oc3ccccc34)CC2)nc1`, the inhibition turned out to be 94% at D(2) dopamine receptor [4] and 91% at D(3) dopamine receptor [5]. For the same molecule, the IC50 against D(4) dopamine receptor was 290 nM; in assay [3], greater than 100 nM.
